Test system: BCL-2 IM
Experiment: FRET fluorescence titration of double-labeled DNA
Format: binding
Details: pH 6.2
Description: Figure S3. Biophysical experiments were performed for binding of acridine derivative to BCL-2 promoter i-motif and other DNA structures. (A-C) SPR experiments were performed for binding of B14 to ILPR promoter i-motif, (G2C4)6 promoter i-motif, and HRAS promoter i-motif. Bio-ILPR, bio-(G2C4)6, and bio-HRAS were annealed in MES buffer at pH 5.5. (D) FRET experiment was performed for pH-dependent fluorescence change of BCL-2 promoter i-motif dual labeled with FAM and TAMRA at the 5´-end and 3´-end, respectively. […] (E) Dose-dependent fluorescence spectra changes at 516 nm for various dual labeled C-rich oligomers (representing i-motifs from promoters of BCL-2, C-KIT, C-MYC, C-JUN and TEL-C DNA) were measured with addition of increasing amount of B14. […] All the experiments were repeated for three times.
The oligonucleotides with fluorescent 5´-FAM and 3′-TAMRA labeling at concentration of 100 nM in 1 × BPES buffer were annealed by heating at 95 °C for 5 min followed by cooling to room temperature. The spectra from 500 nm to 700 nm of 100 μL mixture with addition of different equivalent compounds at 25 °C were recorded based on fluorescence emission (λex = 480 nm).

O=C(CCN1CCOCC1)Nc1ccc2c(c1)c(=O)c1cc(NC(=O)CCN3CCOCC3)ccc1n2-c1ccc2occc2c1 [Compound B14]
fluorescence response of double-labeled DNA: dose-dependent effect on the fluorescence of BCL-2 IM
